One data set concerns the target GSK3alpha (Homo sapiens, UniProt P49840). Description: GSK3alpha assay (same way as the GSK3beta assay). It is filed as biochemical. The note with it: −log IC50 (M); reported as ranges; 0.25 ng/μl GSK3alpha, 1 μM ATP, room temperature, one hour; read-out: pIC50 (GSK3alpha) (converted). As to the method:
(§1) GSK3beta assays were performed at room temperature in a 100 μl reaction volume of 25 mM Tris (pH 7.4) containing 10 mM MgCl2.6H2O, 1 mM DTT, 0.1 mg/ml BSA, 5% glycerol and containing 5.7 ng/μl GSK3β, 5 μM biotinylated phosphorylated CREB peptide, 1 μM ATP, 0.85 μCi/ml ATP-P^33 and a suitable amount of a test compound of formula (I). After one hour, the reaction was terminated by adding 70 μl of Stop mix (0.1 mM ATP, 5 mg/ml streptavidin coated PVT SPA bead pH 11.0). The beads to which the phosphorylated CREB peptide is attached were allowed to settle overnight and the radioactivity of the beads was counted in a microtiterplate scintillation counter and compared with the results obtained in a control experiment (without the presence of a test compound) in order to determine the percentage of GSK3β inhibition. The IC50 value, i.e. the concentration (M) of the test compound at which 50% of GSK3β is inhibited, was calculated from the dose response curve obtained by performing the above-described GSK3β assay in the presence of different amounts of the test compound.
The GSK3alpha assay was performed in the same way as described above for the GSK3beta assay except for the concentration of GSK3alpha which is 0.25 ng/μl.

A further data set has as its target GSK3β (Homo sapiens, UniProt P49841). Briefly: GSK3beta assay (SPA, biotinylated phosphorylated CREB peptide, ATP-P33). It is filed as biochemical. As to conditions: −log IC50 (M); reported as ranges; 5.7 ng/μl GSK3β, 1 μM ATP, room temperature, one hour; read-out: pIC50 (GSK3beta) (converted). As to the method:
as §1

Where a name gives a salt, the structure may show the parent alone.

GSK3alpha, sequence (P49840 whole entry, species assumed): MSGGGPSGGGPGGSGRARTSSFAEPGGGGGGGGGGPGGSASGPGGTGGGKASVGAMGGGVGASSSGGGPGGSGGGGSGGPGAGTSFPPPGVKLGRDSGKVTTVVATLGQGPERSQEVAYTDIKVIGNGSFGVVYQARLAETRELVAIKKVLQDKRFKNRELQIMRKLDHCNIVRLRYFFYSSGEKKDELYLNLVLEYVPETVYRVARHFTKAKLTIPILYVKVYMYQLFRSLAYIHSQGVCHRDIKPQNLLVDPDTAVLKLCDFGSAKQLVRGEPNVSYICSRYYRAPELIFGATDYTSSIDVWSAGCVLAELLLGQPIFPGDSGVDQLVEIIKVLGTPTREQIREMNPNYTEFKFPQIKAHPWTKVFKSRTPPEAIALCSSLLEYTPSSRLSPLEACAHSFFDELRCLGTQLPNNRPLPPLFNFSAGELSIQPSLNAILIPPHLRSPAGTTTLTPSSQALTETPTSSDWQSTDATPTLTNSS
GSK3β, sequence (P49841 whole entry, species assumed): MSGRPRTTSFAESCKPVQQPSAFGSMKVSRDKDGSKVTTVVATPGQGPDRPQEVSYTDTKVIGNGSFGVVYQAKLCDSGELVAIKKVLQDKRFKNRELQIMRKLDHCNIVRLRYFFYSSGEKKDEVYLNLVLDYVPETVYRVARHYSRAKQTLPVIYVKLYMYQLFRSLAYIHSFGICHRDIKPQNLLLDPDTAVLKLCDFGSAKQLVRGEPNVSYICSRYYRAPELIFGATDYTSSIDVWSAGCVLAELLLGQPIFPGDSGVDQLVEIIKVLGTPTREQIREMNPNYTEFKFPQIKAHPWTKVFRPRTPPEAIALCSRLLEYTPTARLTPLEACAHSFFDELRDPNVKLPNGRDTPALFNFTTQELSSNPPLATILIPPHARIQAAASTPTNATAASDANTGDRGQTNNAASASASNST

The term melting point denotes the temperature of the solid-liquid transition. The molecule `NCc1cccc(-n2nnc3cnc(Nc4ccccc4)nc32)c1` (as salt: HCl) [Co. No. 9] yielded a melting point of more than 260 °C.

In the case of `N#CCc1cccc(-n2nnc3cnc(Nc4ccccc4)nc32)c1` [Co. No. 1], the melting point was in the range of 218 to 222 °C. In addition, on GSK3alpha, the IC50 was less than 1e-08 M. Besides, the IC50 on GSK3β was less than 1e-08 M.

`COCCOCc1cccc(-n2nnc3cnc(Nc4ccccc4)nc32)c1` [Co. No. 2]: the melting point was found to be 143 °C. On GSK3alpha, the IC50 was less than 1e-08 M. Further, the IC50 on GSK3β was less than 1e-08 M.

`COCCOc1cccc(-n2nnc3cnc(Nc4ccccc4)nc32)c1` [Co. No. 3] came in with a melting point of 164 °C. Moreover, the IC50 on GSK3alpha is less than 1e-08 M. Moreover, on GSK3β, the IC50 is 1e-08 to 1e-07 M.

As to `c1ccc(Nc2ncc3nnn(-c4ccccc4)c3n2)cc1` [Co. No. 4], the melting point fell in the range of 194 to 198 °C. Further, the IC50 at GSK3alpha was 1e-08 to 1e-07 M. For the same molecule, at GSK3β, the IC50 is 1e-08 to 1e-07 M.

The molecule `CC(C)(C)OC(=O)NCc1cccc(-n2nnc3cnc(Nc4ccccc4)nc32)c1` [Co. No. 5] yielded a melting point of 196 to 198 °C. Moreover, the IC50 on GSK3alpha was less than 1e-08 M. Also, on GSK3β, the IC50 is less than 1e-08 M.

With `O=C(NCc1cccc(-n2nnc3cnc(Nc4ccccc4)nc32)c1)C12CC3CC(CC(C3)C1)C2` [Co. No. 6], the IC50 at GSK3alpha and at GSK3β was more than 1e-07 M each time.

As for `CC(C)CC(=O)NCc1cccc(-n2nnc3cnc(Nc4ccccc4)nc32)c1` [Co. No. 7], the IC50 at GSK3alpha and on GSK3β was less than 1e-08 M in each case.

Regarding `O=C(O)Cc1cccc(-n2nnc3cnc(Nc4ccccc4)nc32)c1` [Co. No. 8], the melting point was determined as 241 °C. Also, the IC50 on GSK3alpha is 1e-08 to 1e-07 M. For the same molecule, the IC50 at GSK3β is more than 1e-07 M.

As for `NCc1cccc(-n2nnc3cnc(Nc4ccccc4)nc32)c1` [Co. No. 9], the IC50 at GSK3alpha was less than 1e-08 M; on GSK3β, 1e-08 to 1e-07 M.

Take `OCCc1cccc(-n2nnc3cnc(Nc4ccccc4)nc32)c1` [Co. No. 10]: the IC50 on GSK3alpha and at GSK3β was less than 1e-08 M each time.

Consider `COCc1cccc(-n2nnc3cnc(Nc4ccccc4)nc32)c1` [Co. No. 11], for which the IC50 at GSK3alpha and at GSK3β was less than 1e-08 M each time.

As to `CC(=O)NCc1cccc(-n2nnc3cnc(Nc4ccccc4)nc32)c1` [Co. No. 12], the IC50 at GSK3alpha was less than 1e-08 M; at GSK3β it was not above 1e-08 M.

With `Fc1cccc(-n2nnc3cnc(Nc4ccccc4)nc32)c1` [Co. No. 13], the IC50 at GSK3alpha was 1e-08 to 1e-07 M.

Take `O=C(NCc1cccc(-n2nnc3cnc(Nc4ccccc4)nc32)c1)C1CC1` [Co. No. 14]: the IC50 on GSK3alpha was more than 1e-06 M.

With `CCOC(=O)NCc1cccc(-n2nnc3cnc(Nc4ccccc4)nc32)c1` [Co. No. 15], the IC50 on GSK3alpha and at GSK3β was less than 1e-08 M in each case.

As for `OCCc1ccc(-n2nnc3cnc(Nc4ccccc4)nc32)cc1` [Co. No. 16], the IC50 at GSK3alpha and on GSK3β was 1e-08 to 1e-07 M in each case.

With `NC(=O)Cc1cccc(-n2nnc3cnc(Nc4ccccc4)nc32)c1` [Co. No. 17], the IC50 at GSK3alpha and at GSK3β was less than 1e-08 M in each case.

Values taken from patent US20100160349A1, “TRIAZOLOPYRIMIDINE DERIVATIVES AS GLYCOGEN SYNTHASE KINASE 3 INHIBITORS” (priority 2005, published 2010).
